Measured values from ChEMBL document CHEMBL1201862, “PubChem BioAssay data set” (2004).
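Method: 48-hour compound exposure of cells in 96-well plates, five concentrations, linear interpolation of endpoints. GI50 = concentration required for 50% inhibition of growth.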 Activity calls are given as the source filed them. Rule as the data show it: active = GI50 up to about 1.1 µM and inactive = higher.

How the values were obtained:
Test in all cases: NCI anticancer screen, dose series, 48 h
CCRF-CEM = tested on: CCRF-CEM
DU-145 = tested on: DU-145
HL-60 = tested on: HL-60
HOP-62 = tested on: HOP-62
IGROV-1 = tested on: IGROV-1
M14 = tested on: M14
MDA-MB-435 = tested on: MDA-MB-435
MDA-N = tested on: MDA-N
MOLT-4 = tested on: MOLT-4
NCI/ADR-RES = tested on: NCI/ADR-RES
OVCAR-3 = tested on: OVCAR-3
OVCAR-4 = tested on: OVCAR-4
OVCAR-5 = tested on: OVCAR-5
SR = tested on: SR
UO-31 = tested on: UO-31
Hs-578T = tested on: Hs-578T

Measured: GI50

COc1ccc(C2CC(=O)CC(c3ccc(OC)cc3)C23C(=O)NC(=S)NC3=O)cc1 (stereo not drawn)
inactive: CCRF-CEM > 100 µM | DU-145 > 100 µM | HL-60 > 100 µM | HOP-62 > 100 µM | IGROV-1 > 100 µM | M14 > 100 µM | MDA-MB-435 > 100 µM | MDA-N > 100 µM | MOLT-4 > 100 µM | NCI/ADR-RES > 100 µM | OVCAR-3 > 100 µM | OVCAR-4 > 100 µM | OVCAR-5 > 100 µM | SR > 100 µM | UO-31 > 100 µM

O=C(OCc1ccccc1[N+](=O)[O-])N1c2ccccc2[C@@]23O[C@]24CCC[C@H]3C#C/C=C\C#C[C@H]14
inactive: CCRF-CEM 4.21 µM | DU-145 > 100 µM | HL-60 2.5 µM | Hs-578T 66.5 µM | IGROV-1 > 100 µM | M14 > 100 µM | MDA-MB-435 > 100 µM | MDA-N > 100 µM | MOLT-4 1.46 µM | NCI/ADR-RES 31.3 µM | OVCAR-3 > 100 µM | OVCAR-4 > 100 µM | OVCAR-5 66.7 µM | UO-31 21 µM

CC1(C)COC(c2cccc(C(=O)c3ccccc3)c2)=N1
inactive: CCRF-CEM 39.4 µM | DU-145 75.7 µM | HL-60 18.6 µM | HOP-62 > 100 µM | IGROV-1 > 100 µM | MDA-N 41 µM | MOLT-4 24.5 µM | NCI/ADR-RES 31.6 µM | OVCAR-3 24.7 µM | OVCAR-4 31 µM | OVCAR-5 > 100 µM | SR 32.3 µM | UO-31 29.1 µM

COc1ccc(OC)c2c(C)ccnc12
inactive: CCRF-CEM 5.25 µM | DU-145 24.1 µM | HOP-62 9.75 µM | IGROV-1 10.7 µM | M14 10.6 µM | MDA-MB-435 25.7 µM | MDA-N 26.3 µM | NCI/ADR-RES 12.9 µM | OVCAR-3 2.99 µM | OVCAR-4 9.77 µM | OVCAR-5 46.1 µM | UO-31 6.78 µM

COc1ccccc1N1C(=O)CSC1c1cccc(Oc2ccccc2)c1 (stereo not drawn)
inactive: CCRF-CEM 26.1 µM | DU-145 18.7 µM | HL-60 20.9 µM | HOP-62 20.1 µM | Hs-578T 20.9 µM | M14 17.7 µM | MDA-MB-435 9.82 µM | MOLT-4 29.9 µM | NCI/ADR-RES 19.7 µM | OVCAR-3 21.1 µM | OVCAR-4 18.5 µM | OVCAR-5 18.5 µM | SR 24.8 µM | UO-31 17.8 µM

O=C(O)CCCc1nc2c(n1Cc1ccccc1)C(=O)c1ccccc1C2=O
inactive: CCRF-CEM 5.19 µM | DU-145 29.6 µM | HL-60 29.1 µM | Hs-578T 75.7 µM | IGROV-1 59.3 µM | M14 3.72 µM | MDA-N 22.5 µM | MOLT-4 44.9 µM | NCI/ADR-RES 36.6 µM | OVCAR-3 21.5 µM | OVCAR-4 20.2 µM | OVCAR-5 76.9 µM | SR 44.7 µM | UO-31 > 100 µM

COC1=CC2(CC(OC)=C1OC)OC21COc2ccccc2C1=O (stereo not drawn)
inactive: CCRF-CEM 32.3 µM | HL-60 32.4 µM | HOP-62 > 100 µM | Hs-578T > 100 µM | IGROV-1 > 100 µM | M14 87.5 µM | MDA-MB-435 > 100 µM | MOLT-4 23 µM | NCI/ADR-RES 85.7 µM | OVCAR-3 > 100 µM | OVCAR-4 84.5 µM | OVCAR-5 > 100 µM | SR 24.9 µM | UO-31 5.16 µM

CC(OC(=O)NCn1cc(-c2ccccc2)nn1)c1ccccc1 (stereo not drawn)
inactive: CCRF-CEM 31.6 µM | DU-145 42.1 µM | HL-60 27.8 µM | HOP-62 > 100 µM | IGROV-1 35.4 µM | M14 17.8 µM | MDA-MB-435 28.8 µM | MOLT-4 20.8 µM | NCI/ADR-RES 33.7 µM | OVCAR-4 > 10 µM | OVCAR-5 49.3 µM | SR 30.2 µM

CC(=O)c1c(CO[N+](=O)[O-])[n+]([O-])c2ccccc2[n+]1[O-]
inactive: CCRF-CEM 37.9 µM | DU-145 > 100 µM | HOP-62 98.2 µM | Hs-578T 41.1 µM | IGROV-1 41.5 µM | M14 35.1 µM | MDA-MB-435 79.6 µM | MOLT-4 78.3 µM | NCI/ADR-RES > 100 µM | OVCAR-3 52.8 µM | OVCAR-4 > 100 µM | OVCAR-5 > 100 µM | SR 43.9 µM | UO-31 70.6 µM

CCOc1ccc(/C=C2\N=C(c3ccccc3)OC2=O)cc1
inactive: CCRF-CEM > 100 µM | HL-60 > 100 µM | HOP-62 > 100 µM | Hs-578T > 100 µM | IGROV-1 > 100 µM | M14 > 100 µM | MDA-MB-435 > 100 µM | MOLT-4 8.71 µM | NCI/ADR-RES > 100 µM | OVCAR-3 > 100 µM | OVCAR-4 > 100 µM | OVCAR-5 > 100 µM | SR > 100 µM | UO-31 > 100 µM

O=C1COc2cccnc2N1CCCCO
inactive: CCRF-CEM > 100 µM | DU-145 > 100 µM | HL-60 > 100 µM | HOP-62 > 100 µM | Hs-578T > 100 µM | IGROV-1 > 100 µM | MDA-MB-435 > 100 µM | MDA-N > 100 µM | MOLT-4 > 100 µM | OVCAR-3 > 100 µM | OVCAR-5 > 100 µM | SR > 100 µM | UO-31 > 100 µM

Cc1nc(C(N)=S)sc1C(=O)C/C(=N/N)C(=O)Nc1ccc(Cl)cc1
inactive: HOP-62 50.8 µM | Hs-578T 39.1 µM | IGROV-1 16.5 µM | M14 > 100 µM | MDA-MB-435 > 100 µM | MDA-N > 100 µM | MOLT-4 45.8 µM | NCI/ADR-RES 60.4 µM | OVCAR-3 37.5 µM | OVCAR-4 78.3 µM | OVCAR-5 > 100 µM | SR > 100 µM | UO-31 70.6 µM

O=c1oc(C(C(F)(F)F)C(F)(F)F)nc2ccccc12
inactive: CCRF-CEM > 100 µM | HL-60 > 100 µM | HOP-62 > 100 µM | IGROV-1 > 100 µM | M14 > 100 µM | MDA-MB-435 > 100 µM | MOLT-4 > 100 µM | NCI/ADR-RES > 100 µM | OVCAR-3 > 100 µM | OVCAR-4 > 100 µM | OVCAR-5 > 100 µM | SR > 100 µM | UO-31 > 100 µM

C[C@]12CC[C@H]3[C@@H](CCC4=CC(=O)CC[C@@]43C)[C@@H]1CC[C@@H]2OC(=O)c1cccc2c(=O)c3ccccc3[nH]c12
inactive: CCRF-CEM 58.1 µM | HOP-62 63.5 µM | Hs-578T 12.1 µM | IGROV-1 > 100 µM | M14 > 100 µM | MDA-MB-435 43.2 µM | MDA-N 42.1 µM | MOLT-4 32.1 µM | NCI/ADR-RES 64 µM | OVCAR-3 > 100 µM | OVCAR-4 54.7 µM | OVCAR-5 > 100 µM | UO-31 > 100 µM
